The values below are quoted from earlier work in patent publication US20050196418A1, “Bioavailability and improved delivery of alkaline pharmaceutical drugs” (priority 2004, published 2005).

For this series the following is noted: free base; due to air oxidation.

Regarding `Clc1ccccc1C(c1ccccc1)(c1ccccc1)n1ccnc1` [Clotrimazole], the “chemical stability in a solution or formulation for shelf storage” value is reported as “chemically unstable”.
